The results in this text go back to patent US20230277534A1 (Plexxikon Inc., priority 2011, published 2023).

One experiment has as its target B-Raf V600E (Homo sapiens (Human), UniProt P15056, V600E). Briefly: B-Raf V600E kinase biochemical activity assay (AlphaScreen, biotin-MEK1 substrate). As to conditions: 100 μM ATP. The method in brief: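 IC50 was derived from AlphaScreen signal (anti-phospho-MEK1/2 antibody with streptavidin donor and Protein A acceptor beads, 3 h) across 8 compound concentrations. The kinase step ran 45 min at room temperature: 0.1 ng B-Raf V600E, 100 nM biotin-MEK1, 100 μM final ATP, pH 7.0 HEPES with MgCl2/MnCl2.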

In experiment [1] the test system is COLO205 colon adenocarcinoma cells (B-Raf V600E mutation). Briefly: COLO205 cell growth inhibition (ATPlite). The experiment is classed as cell-based. As to conditions: Homo sapiens, COLO 205, 72 h, 3 days. As for the experimental part:
Compounds are assessed in a variety of cell based assays.
On day 1, cells are counted, then centrifuged in a conical tube for 5 minutes at 1000 rpm.
On day 2, compound at a maximum concentration of 5 mM is serially diluted 1:3 (e.g. 10 μL with 30 μL dimethyl sulfoxide) for a total of 8 point titration with DMSO as a control. A 1 μL aliquot of each dilution point and control is added to 249 μL growth media and 50 μL is added to a well containing cells, providing 10 μM compound at the maximum concentration point. The cells are incubated for 3 days at 37° C. in 5% CO2.
ATPlite is added 25 μL to each well, shake for 2 minutes, and the cells are incubated at room temperature for 10 minutes, then luminescence is read on Safire reader. The measured luminescence correlates directly with cell number, such that the reading as a function of compound concentration is used to determine the IC50 value.

B-Raf V600E, sequence (P15056 whole entry V600E): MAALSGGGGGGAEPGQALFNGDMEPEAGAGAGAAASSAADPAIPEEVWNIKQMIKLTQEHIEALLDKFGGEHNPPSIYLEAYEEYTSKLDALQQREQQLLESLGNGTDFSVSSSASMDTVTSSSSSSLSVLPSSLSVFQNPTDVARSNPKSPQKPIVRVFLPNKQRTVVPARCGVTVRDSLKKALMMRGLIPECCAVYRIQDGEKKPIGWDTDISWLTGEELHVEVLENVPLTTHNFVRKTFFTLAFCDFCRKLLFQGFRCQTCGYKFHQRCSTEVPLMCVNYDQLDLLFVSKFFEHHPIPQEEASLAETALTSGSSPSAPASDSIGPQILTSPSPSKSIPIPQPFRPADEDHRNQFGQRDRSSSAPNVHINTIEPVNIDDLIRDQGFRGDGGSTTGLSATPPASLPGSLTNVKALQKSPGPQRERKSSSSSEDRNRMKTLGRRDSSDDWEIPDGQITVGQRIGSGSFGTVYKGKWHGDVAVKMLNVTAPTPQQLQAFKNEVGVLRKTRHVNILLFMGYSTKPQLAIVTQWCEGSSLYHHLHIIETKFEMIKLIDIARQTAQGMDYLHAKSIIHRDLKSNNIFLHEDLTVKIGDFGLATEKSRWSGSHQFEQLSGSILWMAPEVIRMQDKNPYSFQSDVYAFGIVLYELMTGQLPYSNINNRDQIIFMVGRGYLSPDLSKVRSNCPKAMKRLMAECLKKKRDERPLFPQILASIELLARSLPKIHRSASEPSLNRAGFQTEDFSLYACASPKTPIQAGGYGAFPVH

For `CCN(C)S(=O)(=O)Nc1cccc(C(=O)c2c[nH]c3ncc(-c4ccc(C(C)(C)O)cc4)cc23)c1F` [Compound P-0104, 3-[3-[[ethyl(methyl)sulfamoyl]amino]-2-fluoro-benzoyl]-5-[4-(1-hydroxy-1-methyl-ethyl)phenyl]-1H-pyrrolo[2,3-b]pyridine], the IC50 is less than 0.1 µM at B-Raf V600E and less than 1 µM in experiment [1].
Taken in the same sequence, the figures for `CN(C)c1ncc(-c2cnc3[nH]cc(C(=O)c4cccc(NS(=O)(=O)N(C)C)c4F)c3c2)cn1` [Compound P-0106, 5-[2-(dimethylamino)pyrimidin-5-yl]-3-[3-(dimethylsulfamoylamino)-2-fluoro-benzoyl]-1H-pyrrolo[2,3-b]pyridine] were less than 0.1 µM and less than 1 µM.
With `CN(C)S(=O)(=O)Nc1cccc(C(=O)c2c[nH]c3ncc(-c4cnc(N5CCCC5)nc4)cc23)c1F` [Compound P-0107, 3-[3-(dimethylsulfamoylamino)-2-fluoro-benzoyl]-5-(2-pyrrolidin-1-ylpyrimidin-5-yl)-1H-pyrrolo[2,3-b]pyridine], the IC50 on B-Raf V600E is less than 0.1 µM; in experiment [1], less than 1 µM.
Turning to `O=C(c1cccc(NS(=O)(=O)N2CCCC2)c1F)c1c[nH]c2ncc(-c3cnc(N4CCCC4)nc3)cc12` [Compound P-0109, N-[2-fluoro-3-[5-(2-pyrrolidin-1-ylpyrimidin-5-yl)-1H-pyrrolo[2,3-b]pyridine-3-carbonyl]phenyl]pyrrolidine-1-sulfonamide], the IC50 was less than 0.1 µM against B-Raf V600E and less than 1 µM in experiment [1].
Taken in the same sequence, the figures for `CN(C)S(=O)(=O)Nc1cccc(C(=O)c2c[nH]c3ncc(I)cc23)c1F` [Compound P-0110, 3-[3-(dimethylsulfamoylamino)-2-fluoro-benzoyl]-5-iodo-1H-pyrrolo[2,3-b]pyridine] were less than 0.1 µM and less than 1 µM.
For `CCCN(C)S(=O)(=O)Nc1cccc(C(=O)c2c[nH]c3ncc(-c4cnc(C)nc4)cc23)c1F` [Compound P-0111, 3-[2-fluoro-3-[[methyl(propyl)sulfamoyl]amino]benzoyl]-5-(2-methylpyrimidin-5-yl)-1H-pyrrolo[2,3-b]pyridine], in that order: less than 0.1 µM and less than 1 µM.
Taken in the same sequence, the figures for `Cc1ncc(-c2cnc3[nH]cc(C(=O)c4cccc(NS(=O)(=O)N(C)CC5CC5)c4F)c3c2)cn1` [Compound P-0112, 3-[3-[[cyclopropylmethyl(methyl)sulfamoyl]amino]-2-fluoro-benzoyl]-5-(2-methylpyrimidin-5-yl)-1H-pyrrolo[2,3-b]pyridine] were less than 0.1 µM and less than 1 µM.
`CN(C)S(=O)(=O)Nc1cccc(C(=O)c2c[nH]c3ncc(-c4ccc(C5CC5)nc4)cc23)c1F` [Compound P-0113, 5-(6-cyclopropyl-3-pyridyl)-3-[3-(dimethylsulfamoylamino)-2-fluoro-benzoyl]-1H-pyrrolo[2,3-b]pyridine]: the IC50 at B-Raf V600E was less than 0.1 µM; in experiment [1] it was less than 1 µM.
For `CCCN(C)S(=O)(=O)Nc1cccc(C(=O)c2c[nH]c3ncc(-c4ccc(C5CC5)nc4)cc23)c1F` [Compound P-0114, 5-(6-cyclopropyl-3-pyridyl)-3-[2-fluoro-3-[[methyl(propyl)sulfamoyl]amino]benzoyl]-1H-pyrrolo[2,3-b]pyridine], in that order: less than 0.1 µM and less than 1 µM.
In the case of `CN(CC1CC1)S(=O)(=O)Nc1cccc(C(=O)c2c[nH]c3ncc(-c4ccc(C5CC5)nc4)cc23)c1F` [Compound P-0115, 3-[3-[[cyclopropylmethyl(methyl)sulfamoyl]amino]-2-fluoro-benzoyl]-5-(6-cyclopropyl-3-pyridyl)-1H-pyrrolo[2,3-b]pyridine], the results for the IC50 (on B-Raf V600E; in experiment [1]) were less than 0.1 µM and less than 1 µM, respectively.
Taken in the same sequence, the figures for `CCCN(C)S(=O)(=O)Nc1ccc(F)c(C(=O)c2c[nH]c3ncc(-c4cnc(OC)nc4)cc23)c1F` [Compound P-0116, 3-[2,6-difluoro-3-[[methyl(propyl)sulfamoyl]amino]benzoyl]-5-(2-methoxypyrimidin-5-yl)-1H-pyrrolo[2,3-b]pyridine] were less than 0.1 µM and less than 1 µM.
As to `CCCNS(=O)(=O)Nc1cccc(C(=O)c2c[nH]c3ncc(I)cc23)c1F` [Compound P-0117, [2-fluoro-3-(propylsulfamoylamino)phenyl]-(5-iodo-1H-pyrrolo[2,3-b]pyridin-3-yl)methanone], the IC50 against B-Raf V600E was more than 0.1 µM; in experiment [1] it was more than 1 µM.
For `CCC(C)S(=O)(=O)Nc1cccc(C(=O)c2c[nH]c3ncc(-c4cnc(OC)nc4)cc23)c1F` (centres unmarked) [Compound P-0224, N-[2-fluoro-3-[5-(2-methoxypyrimidin-5-yl)-1H-pyrrolo[2,3-b]pyridine-3-carbonyl]phenyl]butane-2-sulfonamide], in that order: less than 0.1 µM and less than 1 µM.
For `CCC(C)S(=O)(=O)Nc1cccc(C(=O)c2c[nH]c3ncc(-c4cnc(N5CCCC5)nc4)cc23)c1F` (centres unmarked) [Compound P-0225, N-[2-fluoro-3-[5-(2-pyrrolidin-1-ylpyrimidin-5-yl)-1H-pyrrolo[2,3-b]pyridine-3-carbonyl]phenyl]butane-2-sulfonamide], in that order: less than 0.1 µM and less than 1 µM.
Taken in the same sequence, the figures for `CCC(C)S(=O)(=O)Nc1cccc(C(=O)c2c[nH]c3ncc(-c4cnc(NC5CC5)nc4)cc23)c1F` (centres unmarked) [Compound P-0226, N-[3-[5-[2-(cyclopropylamino)pyrimidin-5-yl]-1H-pyrrolo[2,3-b]pyridine-3-carbonyl]-2-fluoro-phenyl]butane-2-sulfonamide] were less than 0.1 µM and less than 1 µM.
As for `CCC(C)S(=O)(=O)Nc1cccc(C(=O)c2c[nH]c3ncc(-c4ccc(C5(C#N)CC5)cc4)cc23)c1F` (centres unmarked) [Compound P-0227, N-[3-[5-[4-(1-cyanocyclopropyl)phenyl]-1H-pyrrolo[2,3-b]pyridine-3-carbonyl]-2-fluoro-phenyl]butane-2-sulfonamide], the figures for the IC50 (on B-Raf V600E; in experiment [1]) were less than 0.1 µM and less than 1 µM, respectively.
Taken in the same sequence, the figures for `CCC(C)S(=O)(=O)Nc1cccc(C(=O)c2c[nH]c3ncc(-c4cnc(C(C)C)nc4)cc23)c1F` (centres unmarked) [Compound P-0229, N-[2-fluoro-3-[5-(2-isopropylpyrimidin-5-yl)-1H-pyrrolo[2,3-b]pyridine-3-carbonyl]phenyl]butane-2-sulfonamide] were less than 0.1 µM and less than 1 µM.
Taken in the same sequence, the figures for `CCC(C)S(=O)(=O)Nc1cccc(C(=O)c2c[nH]c3ncc(-c4ccc(N(C)C)nc4)cc23)c1F` (centres unmarked) [Compound P-0230, N-[3-[5-[6-(dimethylamino)-3-pyridyl]-1H-pyrrolo[2,3-b]pyridine-3-carbonyl]-2-fluoro-phenyl]butane-2-sulfonamide] were less than 0.1 µM and less than 1 µM.
Taken in the same sequence, the figures for `CCC(C)S(=O)(=O)Nc1cccc(C(=O)c2c[nH]c3ncc(-c4cnc(C)nc4)cc23)c1F` (centres unmarked) [Compound P-0231, N-[2-fluoro-3-[5-(2-methylpyrimidin-5-yl)-1H-pyrrolo[2,3-b]pyridine-3-carbonyl]phenyl]butane-2-sulfonamide] were less than 0.1 µM and less than 1 µM.
In the case of `O=C(c1cccc(NS(=O)(=O)N2CCCC2)c1F)c1c[nH]c2ncc(-c3cnc(N4CCOCC4)nc3)cc12` [Compound P-0235, N-[2-fluoro-3-[5-(2-morpholinopyrimidin-5-yl)-1H-pyrrolo[2,3-b]pyridine-3-carbonyl]phenyl]pyrrolidine-1-sulfonamide], the IC50 at B-Raf V600E was less than 0.1 µM; in experiment [1], less than 1 µM.
For `CCC(C)S(=O)(=O)Nc1cccc(C(=O)c2c[nH]c3ncc(-c4cnc(N5CCOCC5)nc4)cc23)c1F` (centres unmarked) [Compound P-0236, N-[2-fluoro-3-[5-(2-morpholinopyrimidin-5-yl)-1H-pyrrolo[2,3-b]pyridine-3-carbonyl]phenyl]butane-2-sulfonamide], in that order: less than 0.1 µM and less than 1 µM.
For `CN(C)S(=O)(=O)Nc1ccc(F)c(C(=O)c2c[nH]c3ncc(-c4cnc(C5CC5)nc4)cc23)c1F` [Compound P-0238, 5-(2-cyclopropylpyrimidin-5-yl)-3-[3-(dimethylsulfamoylamino)-2,6-difluoro-benzoyl]-1H-pyrrolo[2,3-b]pyridine], in that order: less than 0.1 µM and less than 1 µM.
Taken in the same sequence, the figures for `CCN(C)S(=O)(=O)Nc1ccc(F)c(C(=O)c2c[nH]c3ncc(-c4cnc(C5CC5)nc4)cc23)c1F` [Compound P-0240, 5-(2-cyclopropylpyrimidin-5-yl)-3-[3-[[ethyl(methyl)sulfamoyl]amino]-2,6-difluoro-benzoyl]-1H-pyrrolo[2,3-b]pyridine] were less than 0.1 µM and less than 1 µM.
As to `O=C(c1c(F)ccc(NS(=O)(=O)N2CCCC2)c1F)c1c[nH]c2ncc(-c3cnc(C4CC4)nc3)cc12` [Compound P-0241, N-[3-[5-(2-cyclopropylpyrimidin-5-yl)-1H-pyrrolo[2,3-b]pyridine-3-carbonyl]-2,4-difluoro-phenyl]pyrrolidine-1-sulfonamide], the values for the IC50 (at B-Raf V600E; in experiment [1]) were less than 0.1 µM and less than 1 µM, respectively.
Taken in the same sequence, the figures for `CCCNS(=O)(=O)Nc1cccc(C(=O)c2c[nH]c3ncc(-c4cnn(C)c4)cc23)c1F` [Compound P-0242, [2-fluoro-3-(propylsulfamoylamino)phenyl]-[5-(1-methylpyrazol-4-yl)-1H-pyrrolo[2,3-b]pyridin-3-yl]methanone] were less than 0.1 µM and more than 1 µM.
